In patent US10231954B2, “Neurodegenerative therapies” (LYTIX BIOPHARMA AS, priority 2014, dated 2019):
Where two headings read alike, the source gives them in different places.

Legend:
Type in all cases: biochemical
[1] = target: T1, NEK2a (Homo sapiens, UniProt P51955); experiment: Kinase profiling NEK2a; conditions: for remaining activity at 100 µM: read-out: residual kinase activity, NEK2a
T1 sequence (P51955 1-445): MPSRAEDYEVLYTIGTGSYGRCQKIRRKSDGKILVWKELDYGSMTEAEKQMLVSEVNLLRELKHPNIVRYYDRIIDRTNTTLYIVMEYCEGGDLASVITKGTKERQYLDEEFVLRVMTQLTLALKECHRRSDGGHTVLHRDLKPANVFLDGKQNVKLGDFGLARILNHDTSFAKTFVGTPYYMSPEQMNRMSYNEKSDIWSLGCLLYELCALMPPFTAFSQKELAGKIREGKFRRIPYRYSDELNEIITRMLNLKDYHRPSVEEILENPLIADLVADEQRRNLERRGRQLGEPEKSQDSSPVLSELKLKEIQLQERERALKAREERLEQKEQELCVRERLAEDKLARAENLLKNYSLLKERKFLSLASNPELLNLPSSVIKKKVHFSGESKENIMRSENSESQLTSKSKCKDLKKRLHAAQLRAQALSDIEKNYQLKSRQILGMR
Description: (§1) Any value less that 25 is considered to be highly significant inhibition.

[2] = target: T2, IKKe (Homo sapiens, UniProt Q14164); experiment: Kinase profiling IKKe; conditions: for remaining activity at 100 µM: read-out: residual kinase activity, IKKe
T2 sequence (Q14164 1-716): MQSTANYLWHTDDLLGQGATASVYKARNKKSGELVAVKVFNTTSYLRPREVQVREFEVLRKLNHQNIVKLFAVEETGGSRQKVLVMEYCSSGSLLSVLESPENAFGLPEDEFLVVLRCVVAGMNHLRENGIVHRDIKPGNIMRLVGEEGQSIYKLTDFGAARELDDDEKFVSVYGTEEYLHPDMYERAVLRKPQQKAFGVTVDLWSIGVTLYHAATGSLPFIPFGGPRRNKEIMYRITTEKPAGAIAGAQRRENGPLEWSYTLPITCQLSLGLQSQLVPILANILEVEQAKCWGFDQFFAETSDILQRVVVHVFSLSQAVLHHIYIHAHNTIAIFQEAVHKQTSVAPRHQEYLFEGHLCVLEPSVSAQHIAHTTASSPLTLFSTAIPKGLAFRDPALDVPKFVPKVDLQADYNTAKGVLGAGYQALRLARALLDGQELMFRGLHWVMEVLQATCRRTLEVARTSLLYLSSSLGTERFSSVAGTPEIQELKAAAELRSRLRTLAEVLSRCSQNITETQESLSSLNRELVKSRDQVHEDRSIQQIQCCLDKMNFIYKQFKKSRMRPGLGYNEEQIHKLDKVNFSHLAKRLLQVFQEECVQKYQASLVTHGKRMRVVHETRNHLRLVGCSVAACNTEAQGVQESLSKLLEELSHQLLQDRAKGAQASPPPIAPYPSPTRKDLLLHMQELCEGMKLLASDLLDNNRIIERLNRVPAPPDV
Description: as §1

[3] = target: ABL (Homo sapiens, UniProt P00519); experiment: Kinase profiling ABL; conditions: for remaining activity at 100 µM: read-out: residual kinase activity, ABL
ABL, sequence (P00519 whole entry, species assumed): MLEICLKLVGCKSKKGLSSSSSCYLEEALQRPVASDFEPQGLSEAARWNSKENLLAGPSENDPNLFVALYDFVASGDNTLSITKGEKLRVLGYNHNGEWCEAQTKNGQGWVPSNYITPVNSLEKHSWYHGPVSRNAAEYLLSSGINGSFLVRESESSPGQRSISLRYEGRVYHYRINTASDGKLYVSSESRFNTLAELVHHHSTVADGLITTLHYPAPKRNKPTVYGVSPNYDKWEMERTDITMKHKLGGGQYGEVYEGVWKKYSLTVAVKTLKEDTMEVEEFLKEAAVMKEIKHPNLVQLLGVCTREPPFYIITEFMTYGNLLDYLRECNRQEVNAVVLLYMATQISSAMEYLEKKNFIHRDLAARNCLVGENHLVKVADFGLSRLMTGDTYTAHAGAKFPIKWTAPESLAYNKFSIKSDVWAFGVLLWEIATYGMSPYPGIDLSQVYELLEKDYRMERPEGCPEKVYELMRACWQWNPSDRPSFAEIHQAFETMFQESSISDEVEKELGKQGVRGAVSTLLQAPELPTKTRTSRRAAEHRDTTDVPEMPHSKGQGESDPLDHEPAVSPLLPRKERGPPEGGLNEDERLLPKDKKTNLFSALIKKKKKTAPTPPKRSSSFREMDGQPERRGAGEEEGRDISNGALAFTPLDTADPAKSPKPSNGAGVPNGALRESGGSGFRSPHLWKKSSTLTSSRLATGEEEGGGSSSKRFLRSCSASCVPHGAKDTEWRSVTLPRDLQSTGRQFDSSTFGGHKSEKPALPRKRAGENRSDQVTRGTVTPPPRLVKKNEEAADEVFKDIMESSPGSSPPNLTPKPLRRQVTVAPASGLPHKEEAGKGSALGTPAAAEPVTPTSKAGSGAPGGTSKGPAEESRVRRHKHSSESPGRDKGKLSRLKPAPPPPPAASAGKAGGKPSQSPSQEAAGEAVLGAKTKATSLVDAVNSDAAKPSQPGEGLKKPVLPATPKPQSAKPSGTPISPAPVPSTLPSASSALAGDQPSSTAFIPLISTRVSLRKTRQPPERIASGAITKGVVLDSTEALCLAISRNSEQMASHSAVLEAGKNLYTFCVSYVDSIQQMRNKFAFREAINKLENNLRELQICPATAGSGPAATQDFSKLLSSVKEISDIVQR
Description: as §1

[4] = tested on: AMPK; experiment: Kinase profiling AMPK
Description: as §1

[5] = target: EPH-A4 (Homo sapiens, UniProt P54764); experiment: Kinase profiling EPH-A4; conditions: for remaining activity at 100 µM: read-out: residual kinase activity, EPH-A4
EPH-A4, sequence (P54764 20-986, species assumed): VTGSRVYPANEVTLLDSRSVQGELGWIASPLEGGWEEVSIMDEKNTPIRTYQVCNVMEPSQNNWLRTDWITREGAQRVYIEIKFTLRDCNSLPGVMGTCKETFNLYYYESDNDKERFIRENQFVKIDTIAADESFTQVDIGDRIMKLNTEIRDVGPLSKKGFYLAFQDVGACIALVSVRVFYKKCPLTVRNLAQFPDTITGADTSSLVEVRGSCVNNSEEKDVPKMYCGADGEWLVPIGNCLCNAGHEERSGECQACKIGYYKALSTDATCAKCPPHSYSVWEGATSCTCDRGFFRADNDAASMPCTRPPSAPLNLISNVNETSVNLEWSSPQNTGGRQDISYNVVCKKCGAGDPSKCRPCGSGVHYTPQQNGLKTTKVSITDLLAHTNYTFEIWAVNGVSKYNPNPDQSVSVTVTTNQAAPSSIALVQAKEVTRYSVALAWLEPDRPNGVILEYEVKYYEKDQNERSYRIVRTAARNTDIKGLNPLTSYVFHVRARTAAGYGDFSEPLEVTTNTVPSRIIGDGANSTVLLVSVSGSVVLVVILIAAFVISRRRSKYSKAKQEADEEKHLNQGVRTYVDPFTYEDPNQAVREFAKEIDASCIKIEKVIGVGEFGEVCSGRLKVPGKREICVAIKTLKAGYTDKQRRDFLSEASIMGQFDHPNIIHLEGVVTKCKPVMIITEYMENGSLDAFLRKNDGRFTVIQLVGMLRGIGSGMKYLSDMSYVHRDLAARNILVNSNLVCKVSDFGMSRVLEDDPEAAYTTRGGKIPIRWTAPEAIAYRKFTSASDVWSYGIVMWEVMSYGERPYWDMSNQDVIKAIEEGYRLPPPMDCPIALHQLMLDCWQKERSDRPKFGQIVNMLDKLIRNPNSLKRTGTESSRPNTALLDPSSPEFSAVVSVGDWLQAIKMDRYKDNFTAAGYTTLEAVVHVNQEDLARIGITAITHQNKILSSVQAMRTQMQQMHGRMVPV
Description: as §1

[6] = target: T3, GCK (Homo sapiens, UniProt Q12851); experiment: Kinase profiling GCK; conditions: for remaining activity at 100 µM: read-out: residual kinase activity, GCK
T3 sequence (Q12851 1-820): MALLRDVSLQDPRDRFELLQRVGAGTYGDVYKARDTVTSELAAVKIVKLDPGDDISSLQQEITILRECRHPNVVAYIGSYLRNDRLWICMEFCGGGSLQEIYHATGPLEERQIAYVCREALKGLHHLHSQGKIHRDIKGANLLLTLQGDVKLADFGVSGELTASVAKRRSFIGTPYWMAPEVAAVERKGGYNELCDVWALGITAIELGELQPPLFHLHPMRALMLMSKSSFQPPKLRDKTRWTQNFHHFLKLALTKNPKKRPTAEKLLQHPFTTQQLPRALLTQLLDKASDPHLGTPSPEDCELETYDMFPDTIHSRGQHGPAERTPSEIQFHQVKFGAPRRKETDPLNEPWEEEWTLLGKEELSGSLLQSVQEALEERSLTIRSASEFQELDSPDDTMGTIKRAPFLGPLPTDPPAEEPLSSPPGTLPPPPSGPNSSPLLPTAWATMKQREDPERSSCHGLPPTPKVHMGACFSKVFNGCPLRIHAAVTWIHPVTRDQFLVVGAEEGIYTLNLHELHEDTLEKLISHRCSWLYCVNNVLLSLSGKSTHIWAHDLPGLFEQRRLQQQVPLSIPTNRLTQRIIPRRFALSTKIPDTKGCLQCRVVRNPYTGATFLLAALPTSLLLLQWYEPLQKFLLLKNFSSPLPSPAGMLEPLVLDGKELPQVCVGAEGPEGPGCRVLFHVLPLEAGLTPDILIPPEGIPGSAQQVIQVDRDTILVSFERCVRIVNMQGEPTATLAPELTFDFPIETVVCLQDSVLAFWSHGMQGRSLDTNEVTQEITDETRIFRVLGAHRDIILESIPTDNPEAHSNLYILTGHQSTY
Description: as §1

[7] = target: MST3 (Homo sapiens, UniProt Q9Y6E0); experiment: Kinase profiling MST3; conditions: for remaining activity at 100 µM: read-out: residual kinase activity, MST3
MST3, sequence (Q9Y6E0 whole entry, species assumed): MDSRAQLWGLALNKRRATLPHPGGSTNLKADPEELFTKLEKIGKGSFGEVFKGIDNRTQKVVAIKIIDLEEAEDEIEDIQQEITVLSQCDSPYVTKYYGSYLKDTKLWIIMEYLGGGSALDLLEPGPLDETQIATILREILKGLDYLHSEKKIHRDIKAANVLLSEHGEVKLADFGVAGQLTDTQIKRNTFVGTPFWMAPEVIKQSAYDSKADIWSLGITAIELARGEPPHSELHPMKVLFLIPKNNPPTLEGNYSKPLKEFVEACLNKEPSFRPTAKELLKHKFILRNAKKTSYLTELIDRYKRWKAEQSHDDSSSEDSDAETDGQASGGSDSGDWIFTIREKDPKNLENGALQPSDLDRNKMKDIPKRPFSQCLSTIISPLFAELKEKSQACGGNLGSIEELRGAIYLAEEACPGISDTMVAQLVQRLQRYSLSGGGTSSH
Description: as §1

[8] = target: T4, MARK4 (Homo sapiens, UniProt Q96L34); experiment: Kinase profiling MARK4; conditions: for remaining activity at 100 µM: read-out: residual kinase activity, MARK4
T4 sequence (Q96L34 1-752): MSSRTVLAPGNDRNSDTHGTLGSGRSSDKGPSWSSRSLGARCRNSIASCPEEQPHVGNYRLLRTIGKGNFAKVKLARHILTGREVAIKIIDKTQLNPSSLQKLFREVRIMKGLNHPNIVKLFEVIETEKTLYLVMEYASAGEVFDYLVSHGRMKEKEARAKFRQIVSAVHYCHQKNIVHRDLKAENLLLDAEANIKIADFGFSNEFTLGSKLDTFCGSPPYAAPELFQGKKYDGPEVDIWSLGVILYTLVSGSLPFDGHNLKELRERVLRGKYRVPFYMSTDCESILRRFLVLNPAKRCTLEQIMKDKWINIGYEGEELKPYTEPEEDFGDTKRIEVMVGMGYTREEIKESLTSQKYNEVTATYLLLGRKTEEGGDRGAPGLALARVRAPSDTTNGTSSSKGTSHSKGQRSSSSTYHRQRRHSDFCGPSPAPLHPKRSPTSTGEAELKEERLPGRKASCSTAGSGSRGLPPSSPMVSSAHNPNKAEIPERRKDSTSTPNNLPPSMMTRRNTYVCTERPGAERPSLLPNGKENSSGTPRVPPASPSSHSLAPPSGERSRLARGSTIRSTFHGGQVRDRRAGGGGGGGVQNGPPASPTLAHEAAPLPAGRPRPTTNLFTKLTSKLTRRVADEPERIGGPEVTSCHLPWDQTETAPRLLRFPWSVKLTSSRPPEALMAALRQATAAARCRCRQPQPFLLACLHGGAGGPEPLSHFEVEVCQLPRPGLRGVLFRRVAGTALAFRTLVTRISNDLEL
Description: as §1

[9] = 100 micromolar inhibitor concentration, 100 is no change
[10] = 100 micromolar inhibitor, 100 = no change

Row | Compound | residual kinase activity, AMPK [4, 9] | remaining activity at 100 µM [1, 9] [%] | remaining activity at 100 µM [2, 9] [%] | remaining activity at 100 µM [3, 9] [%] | remaining activity at 100 µM [5, 9] [%] | remaining activity at 100 µM [6, 9] [%] | remaining activity at 100 µM [7, 9] [%] | remaining activity at 100 µM [8, 9] [%] | residual kinase activity, NEK2a [1, 9] | residual kinase activity, IKKe [2, 9] | residual kinase activity, ABL [3, 9] | residual kinase activity, EPH-A4 [5, 9] | residual kinase activity, GCK [6, 9] | residual kinase activity, MST3 [7, 9] | residual kinase activity, MARK4 [8, 9] | also measured
1 | CC(=O)Nc1nc2cc(O)ccc2s1 [Compound 01-66, N-(5-hydroxybenzo[d]thiazol-2-yl)acetamide] | 61 |  |  |  |  |  |  |  |  |  |  |  |  |  |  | remaining activity at 100 µM [1]: 85%; remaining activity at 100 µM [2]: 68%; remaining activity at 100 µM [3]: 29%; remaining activity at 100 µM [5]: 73%; remaining activity at 100 µM [6]: 32%; remaining activity at 100 µM [7]: 79%; remaining activity at 100 µM [8]: 80%
2 | CC(=O)Nc1nc2ccc(O)cc2s1 [Compound 01-71] | 37 | 75 | 58 | 17 | 77 | 19 | 66 | 66 |  |  |  |  |  |  |  | 
3 | CC(=O)Nc1nc2ccc(C(F)(F)F)cc2s1 [Compound 01-90] | 90 | 78 | 81 | 31 | 45 | 15 | 85 | 66 |  |  |  |  |  |  |  | 
4 | CC(=O)Nc1nc2ccc(C#N)cc2s1 [Compound 01-94] | 73 | 60 | 64 | 31 | 62 | 11 | 71 | 51 |  |  |  |  |  |  |  | 
5 | CC(=O)Nc1cccc(NC(=O)c2nc3ccc(O)cc3s2)c1 [Compound 03-07, N-(3-acetamidophenyl)-6-hydroxybenzo[d]thiazole-2-carboxamide] |  |  |  |  |  |  |  |  |  |  |  |  |  |  |  | remaining activity at 100 µM [1, 10]: 38%; remaining activity at 100 µM [2, 10]: 73%; remaining activity at 100 µM [3, 10]: 105%; residual kinase activity, AMPK [4, 10]: 76; remaining activity at 100 µM [5, 10]: 95%; remaining activity at 100 µM [6, 10]: 35%; remaining activity at 100 µM [7, 10]: 85%; remaining activity at 100 µM [8, 10]: 71%
6 | O=C(Nc1nc2cc(O)ccc2s1)c1ccncc1 [Compound 03-11] | 84 |  |  |  |  |  |  |  | 93 | 69 | 99 | 91 | 33 | 92 | 102 | 
7 | O=C(Nc1nc2ccc(O)cc2s1)c1ccccn1 [Compound 03-12] | 86 |  |  |  |  |  |  |  | 92 | 78 | 113 | 78 | 29 | 85 | 90 | 
8 | O=C(Nc1nc2cc(O)ccc2s1)c1ccccn1 [Compound 03-13] | 80 |  |  |  |  |  |  |  | 89 | 63 | 71 | 89 | 39 | 78 | 71 | 
9 | COc1ccc2sc(NC(C)=O)nc2c1 [Compound 03-21] | 100 | 93 | 91 | 111 | 98 | 3 | 91 | 100 |  |  |  |  |  |  |  | 
10 | CC(=O)Nc1nc2ccccc2s1 [Compound 03-32] | 107 |  |  |  |  |  |  |  | 90 | 109 | 86 | 111 | 39 | 87 | 91 | 
11 | O=C(Nc1nc2cc(O)ccc2s1)c1cccnc1 [Compound 03-33] | 91 |  |  |  |  |  |  |  | 99 | 81 | 105 | 92 | 25 | 90 | 95 | 
